In ChEMBL document CHEMBL3885861, “Open TG-GATES”:

Species: Rattus norvegicus
Test: Open TG-GATES - Regimen: Single
Assay type: toxicity, organism-based, Sprague-Dawley
Design: regimen Single, gender Male, age 6 weeks
Settings: in vivo, po, 0 mg/kg, route gavage, dose level Control; for APTT / Bas / Eos / Fbg / Hb / Ht / Lym / MCH / MCHC / MCV / Mono / Neu / PT / Plat / RBC / Ret / WBC: tissue Blood; for KIDNEY_L / KIDNEY_R / KIDNEY_TOTAL: tissue Kidney; for LIVER: tissue Liver; for A/G / ALP / ALT / AST / BUN / CRE / Ca / Cl / DBIL / GLC / IP / K / LDH / Na / PL / RALB / TBIL / TC / TG / TP / gamma-GTP: tissue Plasma

## C[C@]12CCC(=O)C=C1CC[C@@H]1[C@@H]2CC[C@@]2(C)[C@H]1CC[C@]2(C)O [METHYLTESTOSTERONE]
3 h
  TERMINAL_BW: 202.4 g
  APTT: 15.7 s
  Bas: 0%
  Eos: 1%
  Fbg: 277 mg/dL
  Hb: 13.3 g/dL
  Ht: 39%
  Lym: 74.2%
  MCH: 21.5 pg
  MCHC: 34%
  MCV: 63.3 fL
  Mono: 3.6%
  Neu: 20.6%
  PT: 13.2 s
  Plat: 111.8 x10_4/uL
  RBC: 616.6 x10_4/ul
  Ret: 8.5%
  WBC: 71.2 x10_2/uL
  KIDNEY_L: 0.9 g
  KIDNEY_R: 0.9 g
  KIDNEY_TOTAL: 1.8 g
  LIVER: 8.7 g
  A/G: 0.9
  ALP: 1644.6 IU/L
  ALT: 45.4 IU/L
  AST: 80.2 IU/L
  BUN: 9.6 mg/dL
  CRE: 0.2 mg/dL
  Ca: 10.9 mg/dL
  Cl: 105.6 meq/L
  DBIL: 0.01 mg/dL
  GLC: 182.8 mg/dL
  IP: 9.8 mg/dL
  K: 4.4 meq/L
  LDH: 59.4 IU/L
  Na: 142 meq/L
  PL: 136.4 mg/dL
  RALB: 2.6 g/dL
  TBIL: 0.038 mg/dL
  TC: 86.2 mg/dL
  TG: 31.8 mg/dL
  TP: 5.5 g/dL
  gamma-GTP: 1.6 IU/L
6 h
  TERMINAL_BW: 202.9 g
  APTT: 17.1 s
  Bas: 0%
  Eos: 0.8%
  Fbg: 299 mg/dL
  Hb: 13.1 g/dL
  Ht: 38.7%
  Lym: 75.6%
  MCH: 21.5 pg
  MCHC: 34%
  MCV: 63.4 fL
  Mono: 3.6%
  Neu: 19.4%
  PT: 13.2 s
  Plat: 112.5 x10_4/uL
  RBC: 612 x10_4/ul
  Ret: 8.2%
  WBC: 68.1 x10_2/uL
  KIDNEY_L: 0.9 g
  KIDNEY_R: 0.9 g
  KIDNEY_TOTAL: 1.7 g
  LIVER: 8.5 g
  A/G: 0.9
  ALP: 1516.2 IU/L
  ALT: 41.8 IU/L
  AST: 72.4 IU/L
  BUN: 9 mg/dL
  CRE: 0.2 mg/dL
  Ca: 10.8 mg/dL
  Cl: 108 meq/L
  DBIL: 0.012 mg/dL
  GLC: 185.4 mg/dL
  IP: 10.1 mg/dL
  K: 4.1 meq/L
  LDH: 65.6 IU/L
  Na: 142.2 meq/L
  PL: 133.4 mg/dL
  RALB: 2.6 g/dL
  TBIL: 0.046 mg/dL
  TC: 79.8 mg/dL
  TG: 40.6 mg/dL
  TP: 5.5 g/dL
  gamma-GTP: 1.4 IU/L
9 h
  TERMINAL_BW: 203.4 g
  APTT: 16.8 s
  Bas: 0%
  Eos: 1%
  Fbg: 285.6 mg/dL
  Hb: 13.2 g/dL
  Ht: 38.5%
  Lym: 74.4%
  MCH: 21.3 pg
  MCHC: 34.2%
  MCV: 62.4 fL
  Mono: 3%
  Neu: 21.2%
  PT: 12.8 s
  Plat: 108.1 x10_4/uL
  RBC: 616.6 x10_4/ul
  Ret: 8.5%
  WBC: 59.4 x10_2/uL
  KIDNEY_L: 0.9 g
  KIDNEY_R: 0.9 g
  KIDNEY_TOTAL: 1.8 g
  LIVER: 7.9 g
  A/G: 0.9
  ALP: 1387.4 IU/L
  ALT: 42.2 IU/L
  AST: 76.2 IU/L
  BUN: 7.4 mg/dL
  CRE: 0.2 mg/dL
  Ca: 10.4 mg/dL
  Cl: 105.2 meq/L
  DBIL: 0.01 mg/dL
  GLC: 171.4 mg/dL
  IP: 10.6 mg/dL
  K: 4.1 meq/L
  LDH: 60.6 IU/L
  Na: 141 meq/L
  PL: 137.4 mg/dL
  RALB: 2.5 g/dL
  TBIL: 0.044 mg/dL
  TC: 90.2 mg/dL
  TG: 23 mg/dL
  TP: 5.4 g/dL
  gamma-GTP: 1.4 IU/L
24 h
  TERMINAL_BW: 210.8 g
  APTT: 17.4 s
  Bas: 0%
  Eos: 1%
  Fbg: 275 mg/dL
  Hb: 13.2 g/dL
  Ht: 38.6%
  Lym: 76%
  MCH: 21.7 pg
  MCHC: 34.2%
  MCV: 63.6 fL
  Mono: 2.8%
  Neu: 19.6%
  PT: 12.9 s
  Plat: 111.5 x10_4/uL
  RBC: 607.4 x10_4/ul
  Ret: 8.1%
  WBC: 74.8 x10_2/uL
  KIDNEY_L: 0.9 g
  KIDNEY_R: 0.9 g
  KIDNEY_TOTAL: 1.9 g
  LIVER: 9.8 g
  A/G: 0.9
  ALP: 1818.4 IU/L
  ALT: 48.4 IU/L
  AST: 74.2 IU/L
  BUN: 14.8 mg/dL
  CRE: 0.2 mg/dL
  Ca: 11.1 mg/dL
  Cl: 106.2 meq/L
  DBIL: 0.02 mg/dL
  GLC: 194.2 mg/dL
  IP: 8.1 mg/dL
  K: 4.3 meq/L
  LDH: 63.4 IU/L
  Na: 140.8 meq/L
  PL: 149.8 mg/dL
  RALB: 2.7 g/dL
  TBIL: 0.036 mg/dL
  TC: 80.8 mg/dL
  TG: 114.6 mg/dL
  TP: 5.7 g/dL
  gamma-GTP: 1.4 IU/L
